Measured values: patent US6608111B1, “Method for treating or preventing prostatic conditions” (Southern Illinois University Office of Research, …, priority 1998, dated 2003)
“Also recorded” adds a separate entry of the source.

Key:
Format in all cases: in vivo, rat
[1] = tested on: male and female Sprague-Dawley rats; test: Experiment 1: chronic treatment of male and female rats, 4 weeks; conditions: mean ± SEM; for Food intake: 2.5 ug/g of body weight daily injection; for Food intake / Food intake (g): n = 5
Method: Twenty-five male and 25 female Sprague-Dawley rats, 9-10 weeks of age, were randomly assigned to groups of five animals, respectively, as a control group (no treatment) (C), for treatment with vehicle only (V), estradiol (E), (±)-Z-BDDA, or (+)-Z-BDDA. Each animal in group V received a daily 0.1 cc injection of a 10% ethanol-90% olive oil solution; the other treatments received their respective compound as a daily 0.1 cc injection, e.g., 2.5 μg of compound/g of body weight, in a 10% ethanol-90% olive oil solution. A temperature of 21° C. and an artificial 12-h light-dark cycle was maintained in the animal room. All animals were maintained on standard chow in powdered form for four weeks, then sacrificed after an overnight fast under i.p. pentobarbital anesthesia (50 mg/kg). Animal weight and food intake were measured weekly during the study, and the subsequent food-efficiency ratio [FER(g of weight change/g of food intake)] was determined. During sacrifice, blood was collected (via cardiac puncture) for cholesterol measurements. Immediately following sacrifice the fat pads and reproductive organs were removed and weighed.
(§1) Experiments 1 and 2 employed a randomized design. All data were analyzed by one-way analysis of variance (ANOVA,)and post-hoc comparisons were made with Tukey pairwise comparisons test. Significance was confirmed at p≦0.05 (SYSTAT 7.0, SPSS INC., 1997), and all values are reported as means±standard error of the mean.

[2] = tested on: male and female Wistar rats; test: Experiment 2: chronic treatment of male and female rats, 5-6 weeks; conditions: for Food intake: n = 5; for testosterone: compared to the vehicle
Method: Twenty-five male and 25 female Wistar rats, 7-8 weeks of age, were randomly assigned to groups of five animals, respectively, for treatment with vehicle only (V), estradiol (E), (±)-Z-BDDA, (+)-Z-BDDA, or (−)-Z-BDDA. Each animal in group V received a daily 0.1 cc injection of a 10% ethanol-90% olive oil solution; the other treatments received their respective compound as a daily 0.1 cc injection, e.g., 2.5 μg of compound/g of body weight, in a 10% ethanol-90% olive oil solution. A temperature of 21° C. and an artificial 12-h light-dark cycle were maintained in the animal room. All animals were maintained on standard chow in powdered form, the males for five weeks and the females for six weeks, then sacrificed after an overnight fast under i.p. pentobarbital anesthesia (50 mg/kg). Animal weight and food intake were measured weekly during the study and subsequent FER values were determined. During sacrifice, blood was collected (via cardiac puncture) for glucose, luteinizing hormone, prolactin and testosterone measurements. The amounts of luteinizing hormone, prolactin and testosterone were measured to help elucidate the target tissue of the respective compounds in male and female rats. Immediately following sacrifice the fat pads and reproductive organs were removed and weighed.
as §1

[3] = tested on: male Sprague-Dawley rats; test: Example 4: effects on prostate and testis of male rats, 6 weeks; conditions: for testis histology: Leydig cells / testis histology: spermatogenesis: FIGS. 5a-f; for Prostate Weight as % Body Weight / Seminal Vesicle Weight as % Body Weight / Testis Weight as % Body Weight / Body Weight (g): 0.1 ug/g of body weight once a day, mean ± SEM; for Body Weight (g): n = 10
Method: Sixty male Sprague-Dawley rats, 7-8 weeks of age, were randomly assigned to groups of ten animals. Each group was randomly assigned to one of six treatments: Vehicle control (C), Estradiol-17β(E), (−)-Z-BDDA, (+)-Z-BDDA, (−)-HAA, and (+)-HAA. The compounds were all administered at a dose of 0.1 μg/g of body weight in 0.1 cc once a day for 6 weeks. The estrogenic compounds were dissolved in 10% ethanol and 90% olive oil vehicle. A temperature of 21° C. and an artificial 12 h light-dark cycle were maintained in the animal room. All animals were maintained on standard chow in powdered form for six weeks, and then sacrificed after an overnight fast under i.p. pentobarbitol anesthesia (50 mg/kg). Animal weight was measured weekly during the study. During sacrifice, blood was collected via cardiac puncture. Immediately following sacrifice, the fat pads, livers, pituitaries, testes, seminal vesicles, and prostate were removed and weighed, and snap frozen in liquid nitrogen. Prostates and one testis from 2-3 animals in each treatment group were fixed in 10% formalin for histological examination. These tissues were fixed overnight, blocked in paraffin, sectioned at 4 μm, stained with Hematoxylin and Eodsin, cover slipped, and examined microscopically. Quantitative results were subjected to an analysis of variance and means separated by a Tukey's Test (SYSTAT, Chicago, Ill.).

[4] = female rats (uterus), 2.5 ug/g of body weight daily
[5] = female rats, 2.5 ug/g of body weight daily, g of weight change/g of food intake
[6] = female rats, 2.5 ug/g of body weight daily
[7] = male rats (testis), 2.5 ug/g of body weight daily
[8] = male rats, 2.5 ug/g of body weight daily
[9] = female rats (uterus), 2.5 ug/g of body weight daily, six weeks, mean ± SEM
[10] = female rats, 2.5 ug/g of body weight daily, six weeks, mean ± SEM
[11] = male rats (testis), 2.5 ug/g of body weight daily, five weeks, mean ± SEM
[12] = male rats, 2.5 ug/g of body weight daily, five weeks, mean ± SEM

Question: For `C[C@]12CCC3c4ccc(O)cc4CCC3[C@@H]1CCC2O` (single isomer, unassigned; (+)) [estradiol, (+)-17β-estradiol, reference compound], which “Uterus/testis weight” value [1, 4] is on record?
Answer: 1.58 ± 0.15 g

Question: What about the “Food intake” value ([1]; female rats) of the same compound?
Answer: 371.6 ± 17.8 g

Question: What about the “FER (food efficiency ratio)” value [1, 5] of the same compound?
Answer: 0.035 ± 0.011

Question: What about the “Cholesterol (mg/dl)” value [1, 6] of the same compound?
Answer: 44.9 ± 15.8^1 mg/dl

Question: And the “Visceral fat (g)” value [1, 6]?
Answer: 0.8 ± 0.1^1 g

Question: What about the “Uterus/testis weight (g)” value [1, 7] of the same compound?
Answer: 0.94 ± 0.13^1,2 g

Question: And the “Cholesterol (mg/dl)” value [1, 8]?
Answer: 51.5 ± 9.5^1,2 mg/dl

Question: And the “FER (food efficiency ratio)” value [1, 8]?
Answer: −0.057 ± 0.012^1,2

Question: What about the “Prostate weight (g)” value [1, 8] of the same compound?
Answer: 0.09 ± 0.01^1,2 g

Question: What about the “Visceral fat (g)” value [1, 8] of the same compound?
Answer: 4.2 ± 0.4^2 g

Question: What about the “Food intake (g)” value [1, 8] of the same compound?
Answer: 298.2 ± 18.8^1 g

Question: What about the “Uterus/testis weight (g)” value [2, 9] of the same compound?
Answer: 4.83 ± 1.30^1 g

Question: What about the “Blood glucose” value [2, 10] of the same compound?
Answer: 100.80 ± 10.22 mg/dL

Question: What about the “FER (food efficiency ratio)” value [2, 10] of the same compound?
Answer: 0.039 ± 0.004

Question: What about the “Food intake” value [2, 10] of the same compound?
Answer: 699.6 ± 33.7 g

Question: What about the “Uterus/testis weight (g)” value [2, 11] of the same compound?
Answer: 0.74 ± 0.04^1 g

Question: And the testosterone ([2]; male rats, 2.5 μg/g daily)?
Answer: significant (p<0.05) testosterone suppression

Question: And the “Blood glucose” value [2, 12]?
Answer: 108.00 ± 10.90 mg/dL

Question: And the “FER (food efficiency ratio)” value [2, 12]?
Answer: 0.00 ± 0.01^1

Question: What about the “Prostate weight” value [2, 12] of the same compound?
Answer: 0.06 ± 0.02 g

Question: What about the “Food intake” value [2, 12] of the same compound?
Answer: 590.4 ± 47.7 g

Question: What about the “body weight (percent weight change)” value ([2]; male rats, both experiments (FIGS. 2 and 3), 2.5 μg/g daily) of the same compound?
Answer: dramatic reduction in body weight

Question: And the “testis histology: Leydig cells” value ([3]; 0.1 μg/g daily)?
Answer: small

Question: What about the “testis histology: spermatogenesis” value ([3]; 0.1 μg/g daily) of the same compound?
Answer: halted at round (Golgi phase) spermatids

Question: What about the “Prostate Weight as % Body Weight” value [3] of the same compound?
Answer: 0.05 ± 0.00^1 % Body Weight

Question: What about the “Seminal Vesicle Weight as % Body Weight” value [3] of the same compound?
Answer: 0.02 ± 0.00^1 % Body Weight

Question: What about the “Testis Weight as % Body Weight” value [3] of the same compound?
Answer: 0.49 ± 0.13^1,4 % Body Weight

Question: What about the “Body Weight (g)” value [3] of the same compound?
Answer: 207.2 ± 4.6^1 g

Question: What does the source list for `CC[C@H]1c2ccc3cc(O)ccc3c2CC[C@@]1(C)C(=O)O` [(+)-Z-BDDA, (+)-Z-bisdehydrodoisynolic acid]?
Answer: Uterus/testis weight (g) [1, 4]: 2.57 ± 0.79^1,2 g; Food intake ([1]; female rats): 315.2 ± 18.4 g; FER (food efficiency ratio) [1, 5]: 0.045 ± 0.017^4; Cholesterol (mg/dl) [1, 6]: 35.1 ± 8.6^1 mg/dl; Visceral fat (g) [1, 6]: 2.1 ± 0.3^1,3 g; Uterus/testis weight (g) [1, 7]: 0.84 ± 0.06^1,2 g; Cholesterol (mg/dl) [1, 8]: 24.6 ± 2.2^1,2,3 mg/dl; FER (food efficiency ratio) [1, 8]: −0.174 ± 0.027^1,2,3,4; Prostate weight (g) [1, 8]: 0.13 ± 0.04^1,2,3 g; Visceral fat (g) [1, 8]: 5.1 ± 0.2^2 g; Food intake (g) [1, 8]: 326.0 ± 9.5^1 g; Uterus/testis weight (g) [2, 9]: 4.02 ± 0.91^1 g; Blood glucose [2, 10]: 89.60 ± 6.15 mg/dL; FER (food efficiency ratio) [2, 10]: 0.026 ± 0.008^1; Food intake [2, 10]: 693.6 ± 72.3 g; Uterus/testis weight (g) [2, 11]: 0.61 ± 0.02^1 g; testosterone ([2]; male rats, 2.5 μg/g daily): significant (p<0.05) testosterone suppression; Blood glucose (mg/dl) [2, 12]: 94.00 ± 10.18^1 mg/dl; FER (food efficiency ratio) [2, 12]: −0.02 ± 0.01^1; Prostate weight (g) [2, 12]: 0.02 ± 0.00^1 g; Food intake [2, 12]: 676.0 ± 33.2 g; prostate histology (alveoli) ([3]; 0.1 μg/g daily, FIGS. 4a-f): normal alveoli; also recorded: tubules and alveoli being slightly smaller; testis histology: Leydig cells ([3]; 0.1 μg/g daily): normal; testis histology: spermatogenesis ([3]; 0.1 μg/g daily): normal; gross testes weights unadjusted for bodyweight ([3]; 0.1 μg/g daily, data not shown): lighter (P<0.05) than those in control rats; Prostate Weight as % Body Weight [3]: 0.05 ± 0.01^1 % Body Weight; Seminal Vesicle Weight as % Body Weight [3]: 0.23 ± 0.12^2 % Body Weight; Testis Weight as % Body Weight [3]: 0.98 ± 0.15 % Body Weight; Body Weight (g) [3]: 234.8 ± 10.1^1,2 g
